Experimental data published in BigSolDB 2.1.

[1] = in 1,2-diethoxyethane, 293.15 K

Molecule `O=C(O)c1ccccc1C(=O)O` has a solubility (mole fraction) [1] of 0.0154, a solubility (mole fraction) (in 1,2-diethoxyethane, 303.25 K) of 0.0177 and a solubility (mole fraction) (in 1,2-diethoxyethane, 313.2 K) of 0.02. The solubility (mole fraction) (in 1,2-diethoxyethane, 323.05 K) was 0.0228, the solubility (mole fraction) (in 1,2-diethoxyethane, 333.15 K) was 0.0261 and the solubility (mole fraction) (in 1,2-diethoxyethane, 343.05 K) was 0.0302. For the same molecule, the solubility (mole fraction) (in THF, 293.25 K) was 0.0697, the solubility (mole fraction) (in THF, 303.15 K) was 0.0754 and the solubility (mole fraction) (in THF, 313.45 K) was 0.0826. It also gave a solubility (mole fraction) (in THF, 323.15 K) of 0.0899, a solubility (mole fraction) (in THF, 329.05 K) of 0.0949 and a solubility (mole fraction) (in acetophenone, 303.35 K) of 0.0056. For the same molecule, the solubility (mole fraction) (in acetophenone, 313.35 K) was 0.00724, the solubility (mole fraction) (in acetophenone, 323.35 K) was 0.00933 and the solubility (mole fraction) (in acetophenone, 332.95 K) was 0.0119. For the same molecule, the solubility (mole fraction) (in acetophenone, 343.55 K) was 0.0152, the solubility (mole fraction) (in cyclohexanone, 293.15 K) was 0.0176 and the solubility (mole fraction) (in cyclohexanone, 303.15 K) was 0.0212. It also gave a solubility (mole fraction) (in cyclohexanone, 313.15 K) of 0.0257, a solubility (mole fraction) (in cyclohexanone, 323.15 K) of 0.031 and a solubility (mole fraction) (in cyclohexanone, 333.15 K) of 0.037. For the same molecule, the solubility (mole fraction) (in cyclohexanone, 343.4 K) was 0.0459.
`O=C(O)c1cccc(C(=O)O)c1` gave a solubility (mole fraction) (in 1,2-diethoxyethane, 293.3 K) of 0.00265, a solubility (mole fraction) (in 1,2-diethoxyethane, 303.15 K) of 0.00293 and a solubility (mole fraction) (in 1,2-diethoxyethane, 313.15 K) of 0.0033. For the same molecule, the solubility (mole fraction) (in 1,2-diethoxyethane, 322.75 K) was 0.00376, the solubility (mole fraction) (in 1,2-diethoxyethane, 332.65 K) was 0.00433 and the solubility (mole fraction) (in 1,2-diethoxyethane, 342.45 K) was 0.00502. It also gave a solubility (mole fraction) (in THF, 293.35 K) of 0.0141, a solubility (mole fraction) (in THF, 303.15 K) of 0.0154 and a solubility (mole fraction) (in THF, 313.45 K) of 0.0169. It also gave a solubility (mole fraction) (in THF, 322.85 K) of 0.0185, a solubility (mole fraction) (in THF, 328.75 K) of 0.0196 and a solubility (mole fraction) (in acetophenone, 303.15 K) of 0.000725. The solubility (mole fraction) (in acetophenone, 313.15 K) was 0.000858, the solubility (mole fraction) (in acetophenone, 323.05 K) was 0.00105 and the solubility (mole fraction) (in acetophenone, 332.95 K) was 0.00135. For the same molecule, the solubility (mole fraction) (in acetophenone, 342.95 K) was 0.00175, the solubility (mole fraction) (in cyclohexanone, 293.35 K) was 0.00239 and the solubility (mole fraction) (in cyclohexanone, 303.15 K) was 0.00302. It also gave a solubility (mole fraction) (in cyclohexanone, 313.15 K) of 0.00385, a solubility (mole fraction) (in cyclohexanone, 322.75 K) of 0.00469 and a solubility (mole fraction) (in cyclohexanone, 332.75 K) of 0.00571. The solubility (mole fraction) (in cyclohexanone, 342.85 K) was 0.00697.
In the case of `O=C(O)c1ccc(C(=O)O)cc1`, the solubility (mole fraction) [1] is reported as 0.000214, the solubility (mole fraction) (in 1,2-diethoxyethane, 303.3 K) is reported as 0.000251 and the solubility (mole fraction) (in 1,2-diethoxyethane, 313.25 K) is reported as 0.000294. For the same molecule, the solubility (mole fraction) (in 1,2-diethoxyethane, 323.35 K) was 0.000344, the solubility (mole fraction) (in 1,2-diethoxyethane, 333.65 K) was 0.000403 and the solubility (mole fraction) (in 1,2-diethoxyethane, 343.55 K) was 0.000477. It also gave a solubility (mole fraction) (in THF, 293.15 K) of 0.000882, a solubility (mole fraction) (in THF, 303.15 K) of 0.000995 and a solubility (mole fraction) (in THF, 313.45 K) of 0.00115. It also gave a solubility (mole fraction) (in THF, 323.35 K) of 0.0014, a solubility (mole fraction) (in THF, 329.35 K) of 0.00164 and a solubility (mole fraction) (in acetophenone, 303.15 K) of 1.07e-05. It also gave a solubility (mole fraction) (in acetophenone, 313.15 K) of 1.87e-05, a solubility (mole fraction) (in acetophenone, 323.15 K) of 3.47e-05 and a solubility (mole fraction) (in acetophenone, 332.85 K) of 6.17e-05. The solubility (mole fraction) (in acetophenone, 343.3 K) was 0.000116, the solubility (mole fraction) (in cyclohexanone, 293.15 K) was 0.000167 and the solubility (mole fraction) (in cyclohexanone, 303.15 K) was 0.000183. The solubility (mole fraction) (in cyclohexanone, 313.15 K) was 0.000231, the solubility (mole fraction) (in cyclohexanone, 323.3 K) was 0.000302 and the solubility (mole fraction) (in cyclohexanone, 333.4 K) was 0.000385. For the same molecule, the solubility (mole fraction) (in cyclohexanone, 343.85 K) was 0.00053.
